One experiment addresses T1, Adrenergic β2 (Homo sapiens, UniProt P07550).
T1 construct: Adherent H292 cells were removed from tissue culture flasks; endogenous in cells; host or cells: H292 cells
Put plainly: Adrenergic β2 mediated cAMP production in H292 cells. The class given is cell-based. Conditions: for EC50: H292 cells, cAMP by AlphaScreen, 60 minutes at room temperature, rolipram 300 μM, read-out: β2 pEC50 (converted); for β2 Int Act: Intrinsic Activity as a fraction relative to the maximum activity determined for formoterol. The protocol: Adrenergic β2 mediated cAMP production
H292 cells were grown in 225 cm2 flasks incubator at 37° C., 5% CO2 in RPMI medium containing, 10% (v/v) FBS (foetal bovine serum) and 2 mM L-glutamine.
Adherent H292 cells were removed from tissue culture flasks by treatment with Accutase™ cell detachment solution for 15 minutes. Flasks were incubated for 15 minutes in a humidified incubator at 37° C., 5% CO2. Detached cells were re-suspended in RPMI media (containing 10% (v/v) FBS and 2 mM L-glutamine) at 0.05×10^6 cells per mL. 5000 cells in 100 μL were added to each well of a tissue-culture-treated 96-well plate and the cells incubated overnight in a humidified incubator at 37° C., 5% CO2. The culture media was removed and cells were washed twice with 100 μL assay buffer and replaced with 50 μL assay buffer (HBSS solution containing 10 mM HEPES pH7.4 and 5 mM glucose). Cells were rested at room temperature for 20 minutes after which time 25 μL of rolipram (1.2 mM made up in assay buffer containing 2.4% (v/v) dimethylsulphoxide) was added. Cells were incubated with rolipram for 10 minutes after which time test compounds were added and the cells were incubated for 60 minutes at room temperature. The final rolipram concentration in the assay was 300 μM and final vehicle concentration was 1.6% (v/v) dimethylsulphoxide. The reaction was stopped by removing supernatants, washing once with 100 μL assay buffer and replacing with 50 μL lysis buffer. The cell monolayer was frozen at −80° C. for 30 minutes (or overnight).
The concentration of cAMP (cyclic adenosine monophosphate) in the cell lysate was determined using AlphaScreen™ methodology. The frozen cell plate was thawed for 20 minutes on a plate shaker then 10 μL of the cell lysate was transferred to a 96-well white plate. 40 μL of mixed AlphaScreen™ detection beads pre-incubated with biotinylated cAMP, was added to each well and the plate incubated at room temperature for 10 hours in the dark. The AlphaScreen™ signal was measured using an EnVision spectrophotometer (Perkin-Elmer Inc.) with the recommended manufacturer's settings. cAMP concentrations were determined by reference to a calibration curve determined in the same experiment using standard cAMP concentrations. Concentration response curves for agonists were constructed and data was fitted to a four parameter logistic equation to determine both the pEC50 and Intrinsic Activity. Intrinsic Activity was expressed as a fraction relative to the maximum activity determined for formoterol in each experiment.
Background: cAMP levels reflect the balance of adenylyl cyclase and phosphodiesterase activity.

The target of experiment [1] is T2, recombinant human α1D receptor (Homo sapiens, UniProt P25100).
T2 construct: expressed in transfected cells; host or cells: HEK293
T2 sequence (P25100 1-572): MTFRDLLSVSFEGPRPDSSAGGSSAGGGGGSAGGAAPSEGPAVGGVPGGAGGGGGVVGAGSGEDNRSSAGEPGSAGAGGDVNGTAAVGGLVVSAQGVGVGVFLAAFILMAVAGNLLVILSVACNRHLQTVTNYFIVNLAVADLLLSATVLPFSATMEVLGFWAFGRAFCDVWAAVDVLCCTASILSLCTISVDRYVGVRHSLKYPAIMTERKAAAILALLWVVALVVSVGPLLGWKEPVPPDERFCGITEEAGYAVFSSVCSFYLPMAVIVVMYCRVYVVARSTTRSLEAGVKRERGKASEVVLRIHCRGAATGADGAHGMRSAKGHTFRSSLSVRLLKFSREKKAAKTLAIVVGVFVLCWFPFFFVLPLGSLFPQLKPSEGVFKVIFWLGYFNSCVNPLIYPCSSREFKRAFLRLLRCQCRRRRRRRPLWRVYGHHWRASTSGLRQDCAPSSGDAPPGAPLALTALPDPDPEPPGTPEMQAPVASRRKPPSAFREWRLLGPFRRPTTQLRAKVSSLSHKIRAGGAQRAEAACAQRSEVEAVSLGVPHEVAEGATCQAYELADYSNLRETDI
In words: Adrenergic α1D selectivity binding assay ([3H]-prazosin). Conditions: inhibition of [3H]-prazosin (0.3 nM) binding, HEK293 membranes; read-out: α1 bind pIC50 (converted). The protocol: Membranes were prepared from human embryonic kidney 293 (HEK293) cells expressing recombinant human α1D receptor. These were diluted in Assay Buffer (50 mM HEPES, 1 mM EDTA, 0.1% gelatin, pH 7.4) to provide a final concentration of membranes that gave a clear window between maximum and minimum specific binding.
Assays were performed in U-bottomed 96-well polypropylene plates. 10 μL [^3H]-prazosin (0.3 nM final concentration) and 10 μL of test compound (10× final concentration) were added to each test well. For each assay plate 8 replicates were obtained for [^3H]-prazosin binding in the presence of 10 μL vehicle (10% (v/v) DMSO in Assay Buffer; defining maximum binding) or 10 μL BMY7378 (10 μM final concentration; defining non-specific binding (NSB)). Membranes were then added to achieve a final volume of 100 μL. The plates were incubated for 2 hours at room temperature and then filtered onto PEI coated GF/B filter plates, pre-soaked for 1 hour in Assay Buffer, using a 96-well plate Tomtec cell harvester. Five washes with 250 μL wash buffer (50 mM HEPES, 1 mM EDTA, pH 7.4) were performed at 4° C. to remove unbound radioactivity. The plates were dried then sealed from underneath using Packard plate sealers and MicroScint-O (50 μL) was added to each well. The plates were sealed (TopSeal A) and filter-bound radioactivity was measured with a scintillation counter (TopCount, Packard BioScience) using a 3-minute counting protocol.
Total specific binding (B0) was determined by subtracting the mean NSB from the mean maximum binding. NSB values were also subtracted from values from all other wells. […] Data was fitted to a four parameter logistic equation to determine the compound potency, which was expressed as pIC50 (negative log molar concentration inducing 50% inhibition of [^3H]-prazosin binding).

Structures can show the parent of a compound that is named as a salt.

T1 sequence (P07550 whole entry): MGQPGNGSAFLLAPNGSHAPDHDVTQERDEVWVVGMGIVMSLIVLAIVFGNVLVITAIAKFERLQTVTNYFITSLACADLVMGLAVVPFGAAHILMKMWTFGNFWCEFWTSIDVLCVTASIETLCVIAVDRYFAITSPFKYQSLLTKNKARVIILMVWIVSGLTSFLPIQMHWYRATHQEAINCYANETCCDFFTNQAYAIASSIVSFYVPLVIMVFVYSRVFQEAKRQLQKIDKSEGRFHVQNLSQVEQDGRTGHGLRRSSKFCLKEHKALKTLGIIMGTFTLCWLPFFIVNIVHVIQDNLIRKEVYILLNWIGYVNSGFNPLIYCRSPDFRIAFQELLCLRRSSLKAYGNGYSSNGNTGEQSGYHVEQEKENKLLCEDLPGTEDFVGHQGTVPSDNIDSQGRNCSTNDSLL

For `O=C(CCNCCc1ccccc1)N(CCNCCc1ccc(O)c2[nH]c(=O)sc12)C1CCCC1` [Example 2, N-Cyclopentyl-N-(2-{[2-(4-hydroxy-2-oxo-2,3-dihydro-1,3-benzothiazol-7-yl)ethyl]amino}ethyl)-N^3-(2-phenylethyl)-β-alaninamide bis-trifluoroacetic acid salt], at Adrenergic β2, the EC50 was 3.16 nM and the “β2 Int Act” value was found to be 1.04. The IC50 in experiment [1] was 126 nM.
For `CC(C)(C)CN(CCNCCc1ccc(O)c2[nH]c(=O)sc12)C(=O)CCNCCc1ccccc1` [Example 6, N-(2,2-Dimethylpropyl)-N-(2-{[2-(4-hydroxy-2-oxo-2,3-dihydro-1,3-benzothiazol-7-yl)ethyl]amino}ethyl)-N^3-(2-phenylethyl)-β-alaninamide bis-trifluoroacetic acid salt] the same measures were 2 nM, 0.89 and 126 nM.
For the compound `CC(C)(C)CN(CCNCCc1ccc(O)c2[nH]c(=O)sc12)C(=O)CCNCCc1cccc(Cl)c1` [Example 7, N^3-[2-(3-Chlorophenyl)ethyl]-N-(2,2-dimethylpropyl)-N-(2-{[2-(4-hydroxy-2-oxo-2,3-dihydro-1,3-benzothiazol-7-yl)ethyl]amino}ethyl)-β-alaninamide bis-trifluoroacetic acid salt], on Adrenergic β2, the EC50 was 3.98 nM and the “β2 Int Act” value came out at 0.68. Also, the IC50 in experiment [1] is 251 nM.
As to `CC(C)(C)CN(CCNCCc1ccc(O)c2[nH]c(=O)sc12)C(=O)CCNCCc1ccc(Cl)cc1` [Example 8, N^3-[2-(4-Chlorophenyl)ethyl]-N-(2,2-dimethylpropyl)-N-(2-{[2-(4-hydroxy-2-oxo-2,3-dihydro-1,3-benzothiazol-7-yl)ethyl]amino}ethyl)-β-alaninamide bis-trifluoroacetic acid salt], at Adrenergic β2, the EC50 was 10 nM and the “β2 Int Act” value worked out at 0.73. The IC50 in experiment [1] is 501 nM.
In the case of `CC(C)(C)CN(CCNCCc1ccc(O)c2[nH]c(=O)sc12)C(=O)CCNCCc1ccc(Cl)c(Cl)c1` [Example 9, N^3-[2-(3,4-Dichlorophenyl)ethyl]-N-(2,2-dimethylpropyl)-N-(2-{[2-(4-hydroxy-2-oxo-2,3-dihydro-1,3-benzothiazol-7-yl)ethyl]amino}ethyl)-β-alaninamide bis-trifluoroacetic acid salt], on Adrenergic β2, the EC50 was 7.94 nM and the “β2 Int Act” value came out at 0.65. For the same compound, the IC50 in experiment [1] was 1000 nM.
Regarding `C[C@H](CNCCC(=O)N(CCNCCc1ccc(O)c2[nH]c(=O)sc12)CC(C)(C)C)c1ccccc1` [Example 11, N-(2,2-Dimethylpropyl)-N-(2-{[2-(4-hydroxy-2-oxo-2,3-dihydro-1,3-benzothiazol-7-yl)ethyl]amino}ethyl)-N^3-[(2S)-2-phenylpropyl]-β-alaninamide bis-trifluoroacetic acid salt], on Adrenergic β2, the EC50 was 15.8 nM and the “β2 Int Act” value is on record as 0.84. Also, the IC50 in experiment [1] is 501 nM.
For `O=C(CCNCCc1cccc(Cl)c1)N(CCNCCc1ccc(O)c2[nH]c(=O)sc12)C1CCCCC1` [Example 12, N^3-[2-(3-Chlorophenyl)ethyl]-N-cyclohexyl-N-(2-{[2-(4-hydroxy-2-oxo-2,3-dihydro-1,3-benzothiazol-7-yl)ethyl]amino}ethyl)-β-alaninamide bis-trifluoroacetic acid salt], at Adrenergic β2, the EC50 was 2.51 nM and the “β2 Int Act” value came to 0.87. In experiment [1], the IC50 is 200 nM.
Taken in the same sequence, the figures for `O=C(CCNCCc1ccc(Cl)cc1)N(CCNCCc1ccc(O)c2[nH]c(=O)sc12)C1CCCCC1` [Example 13, N^3-[2-(4-Chlorophenyl)ethyl]-N-cyclohexyl-N-(2-{[2-(4-hydroxy-2-oxo-2,3-dihydro-1,3-benzothiazol-7-yl)ethyl]amino}ethyl)-β-alaninamide bis-trifluoroacetic acid salt] were 5.01 nM, 0.71 and 316 nM.
